In patent US20230407304A1, “USE OF MICRORNA INHIBITION TO PREVENT AND TREAT OSTEOARTHRITIS AND OTHER INFLAMMATORY DISEASES” (VIRGINIA COMMONWEALTH UNIVERSITY, priority 2020, published 2023):
“And” between values parts separate entries of the source, which are not always exact repeats. Identical values can stand only once.

Legend:
[1] = system: unilateral ACLT model of OA; conditions: four weeks following ACLT surgery, previous work (Boyan et al.); cited from earlier work
[2] = system: unilateral ACLT model of OA in Sprague Dawley rats; assay: Mild model of OA: unilateral ACLT, weekly intra-articular 24R,25 injections; assay type: in vivo, rat
Experimental: A total of 54 skeletally mature male Sprague-Dawley rats (Envigo, Indianapolis, IN), 9-10 weeks of age, weighing 250-300 g at the study onset, were used for these experiments. All animal procedures were performed according to the National Research Council's Guide for the Care and Use of Laboratory Animals guidelines and approved by Virginia Commonwealth University's Institutional Animal Care and Use Committee. All rats were given ad libitum access to standard pellet and water. Based on a previous study (Scott, supra) using a 30% effect size, 20% variance, and a power of 80%, a two-tail analysis indicated an n=8 per group was necessary to yield statistical significance.
The unilateral ACLT study initially included 45 rats. Each treatment group had n=8 plus 1 extra animal in case of morbidity or mortality. Three rats died resulting in a total of 42 rats in the study. Rats were sedated with 2-4% isoflurane anesthesia in 400 mL/min 02 to effect. Unilateral anterior cruciate ligament transections (ACLT, animals=45) were performed by medially translocating the patellar tendon in order to visualize and transect the ACL to create a […] model of OA. Left legs served at contralateral controls (c-control) while right legs received either […] of vehicle injections or 4×10^−7 M 24R,25(OH)2D3 (24R,2S) injections once a week. Eighteen rats were used to examine a 5-week prophylactic treatment duration while another eighteen rats were used to examine a 10-week prophylactic treatment duration. […] However, 3 animals died in this study resulting in an n=8 for the ACLT rats, for the 5-week vehicle (5W-Veh) treated rats, and the 10-week 24R,25 (10W-24R,25) treated rats. Animals were killed after 70 days. Hind-limbs were collected and micro-CT and histological analyses were performed. […]
The articular cartilage area, fibrotic area, and percent healthy subchondral bone were measured using Zen 2012 Blue Edition software. For the unilateral ACLT study: the articular cartilage area was measured on 2-3 slides per sample and the average area for each sample was reported for medial tibias. […]

[3] = system: IL-1β stimulated increases in MMP-13, PGE2, and NO; conditions: cited from earlier work
[4] = system: bilateral ACLT model of OA in Sprague Dawley rats; assay: Severe model of OA: bilateral ACLT, weekly intra-articular 24R,25 injections; assay type: in vivo, rat; conditions: 10 weeks
Experimental: The second study created a more severe model of OA by performing bilateral ACLTs, using the experimental design shown in FIG. 2B. Treatment groups had n=8 plus 1 extra animal in case of morbidity or mortality. Nine animals were sedated using 2-4% isoflurane anesthesia in 400 mL/min O2 to effect. Bilateral anterior cruciate ligament transections were performed by medially translocating the patellar tendon in order to visualize and transect the ACL. Left legs received vehicle injections and right legs received 24R,25 injections once weekly using the same injection regimen outlined for the previous study. Animals were killed 70 days post-ACLT, and serum and hind-limbs were collected.
24R,25(OH)2D3 was obtained from Enzo Life Sciences (Plymouth Meeting, PA) and dissolved in ethanol at a stock concentration of 10^−4 M in accordance with a previously established protocol (see Boyan et al. PLoS One. 2016; 11(8):e0161782). 40 μL of stock 24R,25 was dissolved in 10 mL sterile 1×PBS to create a final treatment concentration of 4×10^−7 M 24R,25. All animals received injections of 25 μL of 4×10^−7 M 24R,25 in right legs or vehicle (40 μL ethanol dissolved in sterile 1×PBS to a final concentration of 0.4%) in left legs once a week for 70 days based on a previously established protocol (see Boyan et al., supra).
Samples were decalcified for 7 days using Decal™ (StatLab Medical Products, Mckinney, TX), rinsed in running DI water for 15 mins, dehydrated in a series of 70-100% ethanol and xylene washes, and embedded with Richard-Allan Scientific Histoplast Paraffin (VWR, Radnor, PA). 5 μm sections were cut every 100-200 μm throughout the joint using a manual microtome (Shandon Finesse 325, Thermo Scientific) and stained using hematoxylin and eosin (H&E), toluidine blue, or Masson's trichrome. Samples were imaged using Zen 2012 Blue Edition software with an AxioCam MRc5 camera and Axio Observer Z.1 microscope (Carl Zeiss Microscopy, Oberkochen, Germany).
The articular cartilage area, fibrotic area, and percent healthy subchondral bone were measured using Zen 2012 Blue Edition software. For the unilateral ACLT study: the articular cartilage area was measured on 2-3 slides per sample and the average area for each sample was reported for medial tibias. […] For the bilateral ACLT study, articular cartilage area, fibrotic area, and the percent healthy subchondral bone were measured on one slide per sample for medial femurs. The subchondral bone plate was measured and subdivided into healthy regions (normal cartilage above) and unhealthy regions (subchondral bone remodeling and osteophyte formation, cartilage erosion/delamination). The percent healthy subchondral bone was reported as healthy subchondral bone divided by total subchondral bone*100.
Two blinded reviewers scored histological samples and assigned a grade (0-6.5) to assess OA depth progression into the cartilage and a stage (0-4) to assess the horizontal extent of cartilage involvement along the articulating surface according to the OARSI scoring system guidelines (see Pritzker et al. Osteoarthritis Cartilage. 2006 January; 14(1):13-29). The grade and stage were multiplied together to obtain the OARSI score. The higher the score, the more severe OA present, with a max possible score of 26. […]
Data are represented as mean±standard error. […] Blood serum of day 0 vs day 70 was analyzed used a two-tailed paired t-test using an alpha=0.05. […]

[5] = system: rat articular chondrocytes (rArCs); assay: WNT/β-catenin agonist or antagonist treatment of rArCs with or without IL-1β; assay type: cell-based; conditions: compound alone (LiCl 5 mM and 10 mM; XAV 0.5, 1 μM)
[6] = system: destabilization of the medial meniscus model of OA; conditions: destabilization of the medial meniscus model of OA in mice; literature; cited from earlier work
[7] = system: rat articular chondrocytes (rArCs); assay: WNT/β-catenin agonist or antagonist treatment of rArCs with or without TNF-α; assay type: cell-based; conditions: compound plus 10 ng/mL TNF-α
[8] = 10W 24R,25 vs 10W-Veh vs ACLT alone
[9] = bilateral ACLT, 24R,25 vs vehicle limbs

Row | SMILES | OA progression [1] | cartilage area by histomorphometric analysis, medial tibias [2, 8] | micro-CT cartilage volume, medial and lateral tibia [2, 8] | mean OARSI score, medial tibias ([2]; unilateral ACLT, 4×10^−7 M 24R,25 once a week for 10 weeks, day 70, max possible score 26) | IL-1β stimulated increases in MMP-13, PGE2, and NO [3] | OARSI score (average) ([4]; bilateral ACLT, 24R,25 once weekly, day 70) | articular cartilage area, medial femurs (histomorphometric analysis) ([4]; bilateral ACLT, 24R,25 right legs vs vehicle left legs, once weekly) | fibrotic area, medial femurs [4, 9] | percent healthy subchondral bone, medial femurs [4, 9] | mitigation of OA progression / OA severity ([4]; severe (bilateral ACLT) model) | total DNA [5] | cartilage degradation [6] | total DNA [7]
1 | C=C1CC[C@H](O)C/C1=C/C=C1\CCC[C@]2(C)[C@@H]([C@H](C)CC[C@@H](O)C(C)(C)O)CC[C@@H]12 [24R,25, 24R,25-Dihydroxyvitamin D3] | mitigated OA progression | no difference in cartilage area | no difference in cartilage volume between groups | 5.11 | able to prevent | 16.61 and 15 | significantly less articular cartilage area compared to vehicle limbs | equivalent amount | equivalent amount | did not provide evidence of mitigation of OA progression |  |  | 
2 | Oc1nc(-c2ccc(C(F)(F)F)cc2)nc2c1CSCC2 [XAV, XAV-939] |  |  |  |  |  |  |  |  |  |  | this was not seen | reduced cartilage degradation | decrease in total DNA
